These results are taken from ChEMBL document CHEMBL2010742, “Phaeosphaerins A-F, cytotoxic perylenequinones from an endolichenic fungus, Phaeosphaeria sp” (J Nat Prod, 2012).

For one series, the system named is PC-3. The series can be described thus: Cytotoxicity against human PC3 cells after 24 hrs by MTT assay. It is filed as functional, cell-based. Conditions: PC-3, 24 h.
In a further series the test system is LNCaP. The series can be described thus: Cytotoxicity against human LNCAP cells after 24 hrs by MTT assay. Format: functional, cell-based.
The next series has as its system DU-145. The series can be described thus: Cytotoxicity against human DU145 cells after 24 hrs by MTT assay. Conditions: DU-145, 24 h. Format: functional, cell-based.
Series [1] relates to K562. The series can be described thus: Cytotoxicity against human K562 cells treated for 4 hrs followed irradiated with […] light for 1000 seconds by MTT assay. Format: functional, cell-based. The conditions noted are these: K562, light or radiation study.
Series [2] is described as follows: Drug uptake in human MCF7 cell lysosomes at 20 uM after 10 mins by […] staining-based confocal microscopic analysis. Format: ADME, Lysosome. Conditions: mcf7, 10 min.
The subject of series [3] is K562. The series can be described thus: Induction of ROS production in human K562 cells at 10 uM after 3 hrs by DCF fluorescence analysis. Format: functional, cell-based.
Series [4] concerns K562. The series is described as follows: Cytotoxicity against human K562 cells after 24 hrs by MTT assay. Format: functional, cell-based. Conditions: K562, 24 h.

Active and inactive are the calls of the source. The calls are words filed in the database; no cut-off is given here.

Regarding `COc1cccc2c1C(=O)c1c(O)c3c(c(O)c1C2=O)C[C@@](O)(C(=O)CO)C[C@@H]3O[C@H]1C[C@H](N)[C@H](O)[C@H](C)O1` [DOXORUBICIN], the results for the IC50 in the series with PC-3, in the series on LNCaP and with DU-145 were 19.5 µM, 16 µM and 23.5 µM, respectively.

On to `COC1=C2c3c4c5c(c(O)cc(OC)c5c5c(OC)cc(O)c(c35)C1=O)C(=O)[C@H](OC)[C@]41C[C@H](C)O[C@@]2(C(C)=O)O1` [PHAEOSPHAERIN E], for which the results for the IC50 with PC-3, in the series on LNCaP and in the series on DU-145 were 5.25 µM, 10.1 µM and 16.2 µM, respectively.

In the case of `COC1=C2c3c4c5c(c(O)cc(OC)c5c5c(OC)cc(O)c(c35)C1=O)C(=O)[C@@H](OC)[C@@]41C[C@H](C)O[C@@]21C(C)=O` [PHAEOSPHAERIN B], the IC50 in the series with PC-3 was 2.42 µM; with LNCaP, 2.67 µM; in the series with DU-145, 9.54 µM.

Take `COc1c2c3c4c(c(OC)c(=O)c5c(O)cc(OC)c(c6c(OC)cc(O)c(c1=O)c63)c54)[C@@H](C(C)=O)[C@@](C)(O)C2` [HYPOCRELLIN A]: the IC50 came out at 0.55 µM in the series with K562 [1] and 7.47 µM in the series on K562 [4]. For the same compound, the Drug uptake entry in series [2] is given as “Active”. In addition, the result in the series on K562 [3] was Active.

As for `COC1=C2c3c4c5c(c(O)cc(OC)c5c5c(OC)cc(O)c(c35)C1=O)C(=O)[C@@H](OC)[C@]4(CC(C)O)[C@@H]2C(C)=O` (some centres undefined) [PHAEOSPHAERIN C], the IC50 in the series on K562 [1] was found to be 7.08 µM; with PC-3 it was 6.11 µM; in the series with LNCaP it was 14.3 µM; with K562 [4], 19.5 µM; in the series with DU-145 it was 15.2 µM. Further, the Drug uptake result in series [2] is reported as “Active”. Also, in the series on K562 [3], the outcome was Active.

With `COC1=C2c3c4c5c(c(O)cc(OC)c5c5c(OC)cc(O)c(c35)C1=O)C(=O)[C@@]1(OC)O[C@@H](C)C[C@@]41[C@H]2C(C)=O` [PHAEOSPHAERIN A], the IC50 in the series on PC-3 was 5.84 µM; in the series with LNCaP, 10.8 µM; in the series on DU-145, 10.8 µM.

Turning to `COC1=C2c3c4c5c(c(O)cc(OC)c5c5c(OC)cc(O)c(c35)C1=O)C(=O)[C@@H](OC)[C@@]41C[C@H](C)O[C@]2(O)[C@]1(C)O` [PHAEOSPHAERIN D], the IC50 in the series with PC-3 was 9.74 µM; in the series with LNCaP, 24.9 µM; in the series on DU-145, 20.2 µM.

For the compound `COC1=C2c3c4c5c(c(O)cc(OC)c5c5c(OC)cc(O)c(c35)C1=O)C(=O)[C@@H](OC)[C@@]41C[C@H](C)O[C@]2(C(C)=O)O1` [PHAEOSPHAERIN F], the IC50 in the series on PC-3 stood at 5.45 µM; in the series with LNCaP, 11.8 µM; in the series on DU-145, 16.7 µM.
